The target of the assay is HIV-1 RT wild-type enzyme (Human immunodeficiency virus type 1 group M subtype B (isolate HXB2) (HIV-1), UniProt P04585). The assay can be described thus: Determination of HIV-1 reverse transcriptase inhibitory activity (RT polymerase assay). The format is biochemical. Conditions: HIV-1 RT wild-type enzyme 83 pM, RNA-dependent DNA polymerase reaction. The procedure: The heterodimeric nucleic acid substrate used in the HIV-1 RT polymerase reactions was generated by annealing the DNA primer, biotinylated pD500 (Sigma Aldrich, USA, 5′-biotin-ttg aaa tga ctg cgg tac ggc-3′), SEQ ID NO. 1 to the nucleotide RNA template t500 (derived from hepatitis C virus [HCV] sequence, IBA, Germany, 5′-[…]-3′), SEQ ID NO 2.). […] The mixture was then preincubated on an orbital shaker for 30 min at room temperature in microtiter plates (Costar 3365, Corning, USA). A polymerization reaction was initiated by the addition of RNA template/pD500 DNA primer hybrid (16.6 nM final of RNA/DNA hybrid) and dNTPs (2 μM dATP, dGTP, dCTP and 66.6 nM Ru-dUTP (Meso Scale Discovery, USA)). Plate was sealed and incubated for 5-10 min at room temperature on an orbital shaker. Plate was then incubated for 90 min at 37° C. and reactions quenched with 60 μl quenching buffer (50 mM EDTA, 0.7% BSA, 0.7% Tween-20, 0.017% sodium azide in PBS). […] After washing plate 3 times with 150 μL 1×PBS and blotting dry between cycles, 150 μL 1× Read Buffer T (4× Read Buffer T, Meso Scale Discovery) was added and incubated for 5 min at room temperature before counting on a Sector Imager S6000 (Meso Scale Discovery). Titration curves and IC50 values were calculated using a four parameter logistic fit according to standard procedures. […]

As a reminder, the IC50 is the concentration that gives 50% inhibition. A high value points to a need for much substance. `CC(C)c1ccc(-c2cc(Cn3cnc(C(F)(F)F)c(Oc4cc(Cl)cc(C#N)c4)c3=O)n[nH]c2=O)cc1` [Example 49, 3-chloro-5-((1-((5-(4-isopropylphenyl)-6-oxo-1,6-dihydropyridazin-3-yl)methyl)-6-oxo-4-(trifluoromethyl)-1,6-dihydropyrimidin-5-yl)oxy)benzonitrile] had an IC50 of 15 nM.

Source of the values: patent publication US10189831B2, “Non-nucleoside reverse transcriptase inhibitors” (Merck Sharp & Dohme Corp., priority 2012, dated 2019).
